According to patent EP4810052A2, “HCRHR2 SELECTIVE POLYPEPTIDES” (Gubra A/S, priority 2023, dated 2026):
Like-named read-outs stand apart in the source and are kept apart here. Starred links: 1 amine or outer side, 2 acyl side, 3 side chain; linkers in the order of their positions; H or OH if unused. Non-standard residues stand in square brackets, D forms with d. Residues, ends and D or L forms follow the SMILES beside them. Groups on a side chain read outwards from the residue. *: point of attachment. C20 diacid = O=C(O)CCCCCCCCCCCCCCCCCCC(=O)*; γGlu = O=C(O)[C@H](CCC(=O)[*:2])N[*:1]; NMeI = CC[C@H](C)[C@H](NC)C(=O)O; Nle = CCCC[C@H](N)C(=O)O; Ac5c = NC1(C(=O)O)CCCC1; AEEA = NCCOCCOCC(=O)O; Aib = CC(C)(N)C(=O)O

Tests used:
hCRHR2 = biological target: T1, hCRHR2 (Homo sapiens, UniProt Q13324); experiment: HTRF cAMP assay, determination of hCRHR2 potency (peptide libraries 5 conc., purified peptides 11 conc.); type: cell-based
T1 sequence (Q13324 1-411): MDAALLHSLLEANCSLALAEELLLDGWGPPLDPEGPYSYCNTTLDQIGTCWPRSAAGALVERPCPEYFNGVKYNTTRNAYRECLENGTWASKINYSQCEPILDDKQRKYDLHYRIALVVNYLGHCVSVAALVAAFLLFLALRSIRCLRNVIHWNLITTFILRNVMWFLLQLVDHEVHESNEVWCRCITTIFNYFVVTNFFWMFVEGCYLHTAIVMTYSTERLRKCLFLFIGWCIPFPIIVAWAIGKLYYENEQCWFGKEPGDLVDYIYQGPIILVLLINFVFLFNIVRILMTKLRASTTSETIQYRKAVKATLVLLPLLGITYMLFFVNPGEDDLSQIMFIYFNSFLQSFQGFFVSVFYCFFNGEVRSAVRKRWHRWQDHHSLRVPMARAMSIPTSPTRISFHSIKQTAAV
Method in brief: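 Agonist peptides are added to suspended, freshly thawed CHO-K1 cells that stably carry the human receptor. Intracellular cAMP competes with d2-cAMP for a cryptate-tagged antibody, lowering the FRET signal. A variable-slope sigmoid curve is fitted to obtain EC50.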

hCRHR1 = biological target: T2, hCRHR1 (Homo sapiens, UniProt P34998); experiment: HTRF cAMP assay, determination of hCRHR1 potency (peptide libraries 5 conc., purified peptides 11 conc.); type: cell-based
T2 sequence (P34998 24-415): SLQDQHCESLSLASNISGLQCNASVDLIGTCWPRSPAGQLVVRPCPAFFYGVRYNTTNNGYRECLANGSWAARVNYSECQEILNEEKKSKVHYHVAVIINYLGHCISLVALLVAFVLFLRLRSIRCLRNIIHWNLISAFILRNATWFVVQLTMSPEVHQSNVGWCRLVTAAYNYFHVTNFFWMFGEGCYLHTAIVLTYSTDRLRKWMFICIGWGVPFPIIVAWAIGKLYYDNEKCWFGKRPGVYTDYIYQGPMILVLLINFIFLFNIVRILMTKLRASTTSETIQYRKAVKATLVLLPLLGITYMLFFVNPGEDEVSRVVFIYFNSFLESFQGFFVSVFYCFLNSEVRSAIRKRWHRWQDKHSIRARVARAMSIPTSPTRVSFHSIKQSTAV
Method in brief: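 CHO-K1 cells stably expressing human CRHR1, thawed from frozen stocks just before use, were stimulated in suspension with agonist peptides. cAMP was measured by HTRF competitive immunoassay (cryptate anti-cAMP antibody vs d2-cAMP).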

[1] = Table 4, library peptides having X^38 = Nle, read-out: hCRHR2 pEC50 (converted)
[2] = Table 4, library peptides having X^38 = Nle, read-out: hCRHR1 pEC50 (converted)
[3] = library peptides, matched molecular pairs L vs Nle in position X^38, read-out: Potency hCRHR2 pEC50 (converted)
[4] = library peptides, matched molecular pairs L vs Nle in position X^38, read-out: Potency hCRHR1 pEC50 (converted)

EC50 (hCRHR2; [1]) [nM] | EC50 (hCRHR1; [2]) [nM] | EC50 (hCRHR2; [3]) [nM] | EC50 (hCRHR1; [4]) [nM] | Structure (SMILES) | further results
0.126 | 158000 |  |  | CCCC[C@H](NC(=O)[C@@H](NC(=O)[C@H](CCC(=O)O)NC(=O)[C@H](C)NC(=O)[C@H](CC(N)=O)NC(=O)C(C)(C)NC(=O)[C@H](CCCCNC(=O)COCCOCCNC(=O)COCCOCCNC(=O)CC[C@H](NC(=O)CC[C@H](NC(=O)CCCCCCCCCCCCCCCCCCC(=O)O)C(=O)O)C(=O)O)NC(=O)[C@H](C)NC(=O)[C@H](CCC(N)=O)NC(=O)[C@H](CCC(=O)O)NC(=O)[C@H](CCCNC(=N)N)NC(=O)[C@H](C)NC(=O)[C@H](C)NC(=O)[C@H](CCCNC(=N)N)NC(=O)[C@H](C)NC(=O)[C@H](CCCNC(=N)N)NC(=O)[C@H](C)NC(=O)[C@H](CCC(N)=O)NC(=O)[C@H](CC(C)C)NC(=O)[C@H](CC(C)C)NC(=O)[C@H](CC(C)C)NC(=O)[C@@H](NC(=O)[C@H](CCC(N)=O)NC(=O)[C@H](CC(C)C)NC(=O)[C@H](CC(C)C)NC(=O)CNC(=O)[C@@H](NC(=O)[C@@H]1CCCN1C(=O)[C@@H](NC(=O)[C@H](CC(=O)O)NC(=O)[C@H](CC(C)C)NC(=O)[C@H](CO)NC(=O)[C@H](CC(C)C)NC(=O)[C@@H](NC(=O)[C@@H](NC)[C@@H](C)CC)C(C)C)C(C)C)[C@@H](C)CC)[C@@H](C)CC)[C@@H](C)CC)C(=O)N[C@@H](C)C(=O)N[C@@H](CCC(=O)O)C(=O)N[C@H](C(N)=O)C(C)C [compound 235] (H-[NMeI]VLSLDVPIGLLQILLLQARARAAREQAK([AEEA-AEEA-γGlu-γGlu-C20 diacid])[Aib]NAEI[Nle]AEV-NH2) | 
 |  |  |  | CCCC[C@H](NC(=O)[C@@H](NC(=O)[C@H](CCC(=O)O)NC(=O)[C@H](C)NC(=O)[C@H](CC(N)=O)NC(=O)[C@@H](NC(=O)[C@H](CCCCNC(=O)COCCOCCNC(=O)COCCOCCNC(=O)CC[C@H](NC(=O)CC[C@H](NC(=O)CCCCCCCCCCCCCCCCCCC(=O)O)C(=O)O)C(=O)O)NC(=O)[C@H](C)NC(=O)[C@H](CCC(N)=O)NC(=O)[C@H](CCC(N)=O)NC(=O)[C@H](CCCNC(=N)N)NC(=O)[C@H](CCC(N)=O)NC(=O)[C@H](C)NC(=O)[C@H](CCCNC(=N)N)NC(=O)[C@H](C)NC(=O)[C@H](CCCNC(=N)N)NC(=O)[C@H](C)NC(=O)[C@H](CCC(N)=O)NC(=O)[C@H](CCC(=O)O)NC(=O)[C@H](CC(C)C)NC(=O)[C@H](CC(C)C)NC(=O)[C@@H](NC(=O)[C@H](CCC(N)=O)NC(=O)[C@H](CC(C)C)NC(=O)[C@H](CC(C)C)NC(=O)CNC(=O)[C@@H](NC(=O)[C@@H]1CCCN1C(=O)[C@@H](NC(=O)[C@H](CC(=O)O)NC(=O)[C@H](CC(C)C)NC(=O)[C@H](CO)NC(=O)[C@H](CC(C)C)NC(=O)[C@@H](NC(=O)[C@@H](N)[C@@H](C)CC)C(C)C)C(C)C)[C@@H](C)CC)[C@@H](C)CC)[C@@H](C)O)[C@@H](C)CC)C(=O)N[C@@H](C)C(=O)N[C@@H](CCC(=O)O)C(=O)N[C@H](C(N)=O)C(C)C [SEQ ID NO: 47] (H-IVLSLDVPIGLLQILLEQARARAQRQQAK([AEEA-AEEA-γGlu-γGlu-C20 diacid])TNAEI[Nle]AEV-NH2) | EC50 (hCRHR2; Table 3, matched molecular pairs X^38 L vs Nle, peptide library of Example 4, read-out: hCRHR2 pEC50 (converted)): 0.2 nM; EC50 (hCRHR1; Table 3, matched molecular pairs X^38 L vs Nle, peptide library of Example 4, read-out: hCRHR1 pEC50 (converted)): 63.1 nM
 |  | 0.794 | 126000 | CCCC[C@H](NC(=O)[C@@H](NC(=O)[C@H](CCC(=O)O)NC(=O)[C@H](C)NC(=O)[C@H](CC(N)=O)NC(=O)[C@@H](NC(=O)[C@H](CCCCNC(=O)COCCOCCNC(=O)COCCOCCNC(=O)CC[C@H](NC(=O)CC[C@H](NC(=O)CCCCCCCCCCCCCCCCCCC(=O)O)C(=O)O)C(=O)O)NC(=O)[C@H](C)NC(=O)[C@H](CCC(=O)O)NC(=O)[C@H](CCC(=O)O)NC(=O)[C@H](CCCNC(=N)N)NC(=O)[C@H](CC(C)C)NC(=O)[C@H](C)NC(=O)[C@H](CCCNC(=N)N)NC(=O)[C@H](C)NC(=O)[C@H](CCCNC(=N)N)NC(=O)[C@H](C)NC(=O)[C@H](CCC(N)=O)NC(=O)[C@H](CCC(=O)O)NC(=O)[C@H](CC(C)C)NC(=O)[C@H](CC(C)C)NC(=O)[C@@H](NC(=O)[C@H](CCC(N)=O)NC(=O)[C@H](CC(C)C)NC(=O)[C@H](CC(C)C)NC(=O)CNC(=O)[C@@H](NC(=O)[C@@H]1CCCN1C(=O)[C@@H](NC(=O)[C@H](CC(=O)O)NC(=O)[C@H](CC(C)C)NC(=O)[C@H](CO)NC(=O)[C@H](CC(C)C)NC(=O)[C@@H](NC(=O)[C@@H](N)[C@@H](C)CC)C(C)C)C(C)C)[C@@H](C)CC)[C@@H](C)CC)[C@@H](C)O)[C@@H](C)CC)C(=O)N[C@@H](C)C(=O)N[C@@H](CCC(=O)O)C(=O)N[C@H](C(N)=O)C(C)C [compound 51] (H-IVLSLDVPIGLLQILLEQARARALREEAK([AEEA-AEEA-γGlu-γGlu-C20 diacid])TNAEI[Nle]AEV-NH2) | 
0.0631 | 2510 |  |  | CCCC[C@H](NC(=O)[C@@H](NC(=O)[C@H](CCC(=O)O)NC(=O)C(C)(C)NC(=O)[C@H](CC(N)=O)NC(=O)[C@@H](NC(=O)[C@H](CCCCNC(=O)COCCOCCNC(=O)COCCOCCNC(=O)CC[C@H](NC(=O)CC[C@H](NC(=O)CCCCCCCCCCCCCCCCCCC(=O)O)C(=O)O)C(=O)O)NC(=O)[C@H](C)NC(=O)[C@H](CCC(N)=O)NC(=O)[C@H](CCC(=O)O)NC(=O)[C@H](CCCNC(=N)N)NC(=O)[C@H](C)NC(=O)[C@H](C)NC(=O)[C@H](CCCNC(=N)N)NC(=O)[C@H](C)NC(=O)[C@H](CCCNC(=N)N)NC(=O)[C@H](C)NC(=O)[C@H](CCC(N)=O)NC(=O)[C@@H](NC(=O)[C@H](CC(C)C)NC(=O)[C@H](CC(C)C)NC(=O)[C@@H](NC(=O)[C@H](CCC(N)=O)NC(=O)[C@H](CC(C)C)NC(=O)[C@H](CC(C)C)NC(=O)CNC(=O)[C@@H](NC(=O)[C@@H]1CCCN1C(=O)[C@@H](NC(=O)[C@H](CC(=O)O)NC(=O)[C@H](CC(C)C)NC(=O)[C@H](CO)NC(=O)[C@H](CC(C)C)NC(=O)[C@@H](NC(=O)[C@@H](NC)[C@@H](C)CC)C(C)C)C(C)C)[C@@H](C)CC)[C@@H](C)CC)C(C)C)[C@@H](C)O)[C@@H](C)CC)C(=O)N[C@@H](C)C(=O)N[C@@H](CCC(=O)O)C(=O)N[C@H](C(N)=O)C(C)C [compound 231] (H-[NMeI]VLSLDVPIGLLQILLVQARARAAREQAK([AEEA-AEEA-γGlu-γGlu-C20 diacid])TN[Aib]EI[Nle]AEV-NH2) | 
 |  | 0.251 | 2 | CCCC[C@H](NC(=O)[C@@H](NC(=O)[C@H](CCC(=O)O)NC(=O)[C@H](C)NC(=O)[C@H](CC(N)=O)NC(=O)[C@@H](NC(=O)[C@H](CCCCNC(=O)COCCOCCNC(=O)COCCOCCNC(=O)CC[C@H](NC(=O)CC[C@H](NC(=O)CCCCCCCCCCCCCCCCCCC(=O)O)C(=O)O)C(=O)O)NC(=O)[C@H](C)NC(=O)[C@H](CCC(N)=O)NC(=O)[C@H](CCC(=O)O)NC(=O)[C@H](CCCNC(=N)N)NC(=O)[C@H](C)NC(=O)[C@H](CCC(N)=O)NC(=O)[C@H](CCCNC(=N)N)NC(=O)[C@H](C)NC(=O)[C@H](CCCNC(=N)N)NC(=O)[C@H](C)NC(=O)[C@H](CCC(N)=O)NC(=O)[C@H](CCC(=O)O)NC(=O)[C@H](CC(C)C)NC(=O)[C@H](CC(C)C)NC(=O)[C@@H](NC(=O)[C@H](CCC(N)=O)NC(=O)[C@H](CC(C)C)NC(=O)[C@H](CC(C)C)NC(=O)CNC(=O)[C@@H](NC(=O)[C@@H]1CCCN1C(=O)C1(NC(=O)[C@H](CC(=O)O)NC(=O)[C@H](CC(C)C)NC(=O)[C@H](CO)NC(=O)[C@H](CC(C)C)NC(=O)[C@@H](NC(=O)[C@@H](N)[C@@H](C)CC)C(C)C)CCCC1)[C@@H](C)CC)[C@@H](C)CC)[C@@H](C)O)[C@@H](C)CC)C(=O)N[C@@H](C)C(=O)N[C@@H](CCC(=O)O)C(=O)N[C@H](C(N)=O)C(C)C [compound 79] (H-IVLSLD[Ac5c]PIGLLQILLEQARARQAREQAK([AEEA-AEEA-γGlu-γGlu-C20 diacid])TNAEI[Nle]AEV-NH2) | 
